Results from patent publication US20050255041A1, “Cancerous disease modifying antibodies” (Arius Research, Inc., priority 2004, published 2005).
Read-outs that look alike come from different tables or passages of the source.

Legend:
[1] = Live/Dead cytotoxicity assay, hybridoma supernatant; type: cell-based; details: human, hybridoma supernatant (or cycloheximide positive control), calcein
Procedure: Three human breast cancer cell lines were tested: MDA-MB-231, MDA-MB-468 and SKBR-3. […] The wells that served as the positive controls were aspirated until empty and 100 μL of sodium azide (NaN3) or cycloheximide was added. After 5 days of treatment, the plates were then emptied by inverting and blotting dry. […] The AR2A72.10 hybridoma produced specific cytotoxicity of 15,27 and 44 percent in MDA-MB-231, MDA-MB-468 and SKBR-3 cells respectively. The known non-specific cytotoxic agent cycloheximide produced cytotoxicity as expected given the limitations of in vitro biological assays.

Hs888 Lu = details: 5 days; AR2A72.10 and AR3BD-26 20 μg/mL, anti-fas and anti-Her2/neu 10 μg/mL, anti-EGFR 5 μg/mL, cycloheximide 0.5 μM, NaN3 0.1%
Procedure: Antibodies were tested against a panel of ovarian cancer, and normal cell lines. Two ovarian cancer (OVCAR-3, Sk-OV-3) and non-cancer (CCD-27sk, Hs888.Lu) cell lines were obtained from the ATCC, Manassas, Va. A2780-cp, A2780-s, C-13, OV2008, ES-2, Hey, OCC-1, OVCA-429 were obtained from the Ottawa Regional Cancer Center (Ottawa, ON). The Live/Dead cytotoxicity assay was obtained from Molecular Probes (Eugene, Oreg.). The assays were performed according to the manufacturer's instructions with the changes outlined below. Cells were plated before the assay at the predetermined appropriate density. After 2 days, purified antibody or controls were diluted into media, and then 100 microliters were transferred to the cell plates and incubated in a 5 percent CO2 incubator for 5 days. The plate was then emptied by inverting and blotted dry. Room temperature DPBS containing MgCl2 and CaCl2 was dispensed into each well from a multi-channel squeeze bottle, tapped three times, emptied by inversion and then blotted dry. 50 microliters of the fluorescent calcein dye diluted in DPBS containing MgCl2 and CaCl2 was added to each well and incubated at 37° C. in a 5 percent CO2 incubator for 30 minutes. […]

Compound	cytotoxicity at 5 days ([1]; read-out: Cytotoxicity (%) MDA-MB-231 Average)	cytotoxicity at 5 days ([1]; read-out: Cytotoxicity (%) MDA-MB-468 Average)	cytotoxicity at 5 days ([1]; read-out: Cytotoxicity (%) SKBR-3 Average)	In vitro cytotoxicity, Hs888 Lu (normal) (Hs888 Lu)
C[C@@H]1C[C@@H]([C@H](O)CC2CC(=O)NC(=O)C2)C(=O)[C@@H](C)C1 [Cycloheximide]	49%	24%	56%	–
[N-]=[N+]=[N-] [NaN3, sodium azide]	–	–	–	+++ (4/4 experiments greater than threshold cytotoxicity)
